{"source": "patent US20240299406A1", "about": "“NEURONAL NICOTINIC ACETYLCHOLINE RECEPTOR PARTIAL AGONISTS AS THERAPEUTICS FOR CHRONIC TINNITUS” (Board of Trustees of Southern Illinois University, priority 2019, published 2024)", "key": {"α7 nAChRs [1]": {"biological_target": "T1, α7 nAChRs (Homo sapiens, UniProt P36544)", "T1 sequence (P36544 23-502)": "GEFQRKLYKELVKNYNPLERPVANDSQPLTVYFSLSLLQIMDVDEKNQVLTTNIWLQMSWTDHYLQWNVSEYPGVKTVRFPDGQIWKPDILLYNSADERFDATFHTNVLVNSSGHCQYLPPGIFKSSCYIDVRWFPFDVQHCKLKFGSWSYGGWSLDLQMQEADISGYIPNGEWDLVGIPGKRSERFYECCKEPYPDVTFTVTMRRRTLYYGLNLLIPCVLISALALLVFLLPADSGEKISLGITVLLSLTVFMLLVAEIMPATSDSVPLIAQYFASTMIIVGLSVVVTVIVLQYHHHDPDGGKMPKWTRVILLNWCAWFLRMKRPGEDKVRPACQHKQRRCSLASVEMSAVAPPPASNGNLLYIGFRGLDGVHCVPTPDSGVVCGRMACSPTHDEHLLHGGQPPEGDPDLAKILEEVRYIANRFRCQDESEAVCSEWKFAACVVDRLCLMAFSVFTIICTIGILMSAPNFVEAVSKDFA", "conditions": "cited from earlier work"}, "[2]": {"test_system": "rats with behavioral evidence of tinnitus", "test": "operant conditioned-suppression behavioral test for tinnitus (suppression ratio, 20 kHz test series)", "type": "in vivo, Long Evans rats", "conditions": "for evidence of tinnitus: SC injection", "excerpt": "Unilaterally sound-exposed animals were used to study the effects of sazetidine on tinnitus. Experiments used an established behavioral psychoacoustic test to determine whether sazetidine could ameliorate tinnitus in subjects (rats) with behavioral evidence of tinnitus. Three months following sound-exposure, animals with tinnitus show consistent difficulty identifying silence. Sounds of varying intensity/levels were presented to sound-exposed (tinnitus) and unexposed (non-tinnitus control) subjects. The animals' behavior, quantified as a suppression ratio, indicated their level of tinnitus. Greater suppression, i.e., a decrease in lever pressing, indicates the presence of tinnitus.\nThe present study examined the potential therapeutic effect of sazetidine and varenicline to ameliorate tinnitus in rats with behavioral evidence of tinnitus. For two decades, an operant-behavior model has been used to investigate tinnitus pathology. In this model, animals are taught to attend closely to their auditory sensations using a conditioned suppression procedure: Animals lever press for food pellets in the presence of low-level background sounds, randomly punctuated by sound-off (silence) periods. Sound-off (silence) lever pressing earns food pellets but leads to a mild foot shock at the conclusion of the sound off presentation. The animals are therefore conditioned to stop lever pressing when the external sound is off, i.e., conditioned suppression. In this paradigm, the animals are conditioned to attend to their sound environment, and when tones of different frequencies and levels/intensities are substituted for some of the sound-off periods, the attendant behavior can be used to derive psychometric functions indicative of tinnitus.\nSixteen, 96-day old Long Evans rats (Envigo, Indianapolis, IN, USA) were anesthetized with a 1.7 percent isoflurane/02 mixture, placed in a head holder. A Fostex speaker (FT17H, Akashima, Japan) was attached to a 2 cm length of flexible tubing positioned at the entrance of the right ear canal. Eight randomly selected rats were unilaterally exposed once to band-limited noise for 1 hr, with a peak level of 120 dB (SPL) centered at 16 kHz, falling to ambient levels at 8 kHz and 24 kHz. During sound-exposure, the contralateral canal was obstructed by a canal-fitted plastic plug/tube from the contralateral speaker. Auditory brainstem responses (ABRs), which measure hearing, were obtained before and after exposure for pure tones at 8, 10, 12, 16, 20, 24, and 32 kHz, presented in 10 dB decrements between 95 and 5 dB (SPL re […]). Eight unexposed animals were similarly tested. Tinnitus testing began 3 months following sound-exposure and hearing-level determination.\nSazetidine A dihydrochloride (batch 2A/187725) was obtained in solid form, from Tocris Bioscience (Minneapolis, MN, USA). The drug was dissolved in sterile normal saline at a concentration of 2 mg/ml, or less, and administered as a subcutaneous injection (SC) 1 hour prior to behavioral testing.\nVarenicline, varenicline tartrate, was purchased from Santa Cruz Biotechnology, Inc. (Dallas, Texas, USA). The drug was dissolved in sterile normal saline at a concentration of 1 mg/ml, or less, and administered as a SC injection 1 hour prior to behavioral testing.\n(§1) Sterile normal saline was considered a pharmaceutically acceptable carrier, but other pharmaceutically acceptable carriers may also be used as a substitute. All animals, unexposed controls and sound-exposed, were drug treated and tested in parallel. […] Dose levels of 0.1, 0.5, and 1 mg/kg were tested for therapeutic effect, over a minimum of 3 consecutive days for each dose level. Washout periods of 1 to 5 weeks (5 test sessions per week) intervened between drug-testing, as required to recover pre-drug baseline tinnitus performance.\nPrior to the start of drug testing, each group was optimized to five rats per group. […]"}, "α3β4 nAChRs [3]": {"biological_target": "T2, α3β4 nAChRs (Homo sapiens, UniProt P30926+P32297)", "T2 sequence (P32297 32-505)": "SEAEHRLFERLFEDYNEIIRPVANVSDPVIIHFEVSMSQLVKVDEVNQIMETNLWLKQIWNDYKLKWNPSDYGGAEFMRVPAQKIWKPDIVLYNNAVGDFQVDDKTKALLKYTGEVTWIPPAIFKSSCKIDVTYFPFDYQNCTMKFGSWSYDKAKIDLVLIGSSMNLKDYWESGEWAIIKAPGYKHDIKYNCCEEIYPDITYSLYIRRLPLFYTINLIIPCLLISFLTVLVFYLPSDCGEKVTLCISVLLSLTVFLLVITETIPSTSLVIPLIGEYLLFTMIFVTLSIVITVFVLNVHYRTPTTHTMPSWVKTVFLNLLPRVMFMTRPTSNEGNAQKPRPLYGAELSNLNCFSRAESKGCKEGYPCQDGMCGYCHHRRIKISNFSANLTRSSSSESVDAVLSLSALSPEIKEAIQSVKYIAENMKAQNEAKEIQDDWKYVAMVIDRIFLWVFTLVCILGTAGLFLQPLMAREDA", "T2 sequence (P30926 22-498)": "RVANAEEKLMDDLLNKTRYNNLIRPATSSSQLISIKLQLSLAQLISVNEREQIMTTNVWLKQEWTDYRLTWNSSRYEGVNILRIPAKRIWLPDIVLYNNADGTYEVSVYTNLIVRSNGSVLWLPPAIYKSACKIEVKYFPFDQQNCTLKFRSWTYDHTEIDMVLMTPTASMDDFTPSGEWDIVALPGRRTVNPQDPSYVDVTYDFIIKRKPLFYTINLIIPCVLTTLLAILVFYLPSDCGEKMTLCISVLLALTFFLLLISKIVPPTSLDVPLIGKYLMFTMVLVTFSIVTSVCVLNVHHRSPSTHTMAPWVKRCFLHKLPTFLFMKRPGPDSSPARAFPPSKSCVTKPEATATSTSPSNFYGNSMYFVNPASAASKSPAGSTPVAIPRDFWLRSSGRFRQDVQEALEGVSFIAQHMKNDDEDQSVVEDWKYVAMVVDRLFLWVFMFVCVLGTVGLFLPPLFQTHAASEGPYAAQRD", "conditions": "cited from earlier work"}, "[4]": {"test": "non-specific drug effects (cage observation, session lever pressing)", "type": "in vivo, rats", "protocol": "FIG. 10 illustrates the data for a non-specific effect. The non-specific effects appeared 10 to 15 min after treatment but were not present 1 hr after treatment, i.e., at the beginning of the test period.\nas §1\nAt 1 mg/kg. […] Within 10 min of drug treatment all animals assumed a prone resting position in their home cage, which lasted about 10 min. Afterward animals resumed normal cage activity, e.g., moving about, grooming, sniffing. […] This behavior was not observed in washout or saline (vehicle) sessions, nor was it observed in the remaining 15 animals. Mild sedation was indicated by a decrease in total bar pressing at 1.0 mg/kg (FIG. 10)."}, "α4β2 nAChRs": {"biological_target": "α4β2 nAChRs (Homo sapiens, UniProt P17787+P43681)", "sequence (P43681 29-627 limits assumed)": "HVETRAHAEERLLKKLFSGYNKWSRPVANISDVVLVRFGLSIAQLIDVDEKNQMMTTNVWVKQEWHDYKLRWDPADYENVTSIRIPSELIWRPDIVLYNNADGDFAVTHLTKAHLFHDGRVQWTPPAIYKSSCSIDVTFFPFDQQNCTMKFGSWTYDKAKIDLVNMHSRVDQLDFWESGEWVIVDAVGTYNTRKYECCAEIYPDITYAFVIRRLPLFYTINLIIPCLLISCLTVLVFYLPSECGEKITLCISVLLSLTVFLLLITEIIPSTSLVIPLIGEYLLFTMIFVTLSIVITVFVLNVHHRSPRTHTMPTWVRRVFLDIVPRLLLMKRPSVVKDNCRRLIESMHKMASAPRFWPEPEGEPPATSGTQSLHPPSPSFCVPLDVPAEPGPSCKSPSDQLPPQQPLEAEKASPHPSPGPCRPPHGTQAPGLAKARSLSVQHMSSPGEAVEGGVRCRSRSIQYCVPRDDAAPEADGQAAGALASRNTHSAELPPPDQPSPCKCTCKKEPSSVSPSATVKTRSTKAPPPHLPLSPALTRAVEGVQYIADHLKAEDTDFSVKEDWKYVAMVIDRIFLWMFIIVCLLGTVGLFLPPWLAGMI", "sequence (P17787 26-502)": "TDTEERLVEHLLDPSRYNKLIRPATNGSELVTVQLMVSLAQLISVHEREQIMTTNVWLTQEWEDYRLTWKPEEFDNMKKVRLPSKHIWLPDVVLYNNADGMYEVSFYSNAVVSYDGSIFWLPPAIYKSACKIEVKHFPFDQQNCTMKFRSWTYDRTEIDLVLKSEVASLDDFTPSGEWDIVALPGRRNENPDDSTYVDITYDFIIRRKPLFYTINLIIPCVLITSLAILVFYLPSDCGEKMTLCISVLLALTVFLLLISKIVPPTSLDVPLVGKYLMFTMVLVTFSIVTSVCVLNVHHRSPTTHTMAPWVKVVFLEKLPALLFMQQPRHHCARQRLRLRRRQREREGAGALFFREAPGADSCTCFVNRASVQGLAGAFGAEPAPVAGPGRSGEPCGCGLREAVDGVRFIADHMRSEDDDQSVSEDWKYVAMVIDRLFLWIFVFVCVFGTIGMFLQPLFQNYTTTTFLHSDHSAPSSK", "conditions": "cited from earlier work; for affinity for β2-containing nAChRs: partial nAChR agonists"}, "[5]": {"test_system": "rats with behavioral evidence of tinnitus", "test": "operant conditioned-suppression behavioral test for tinnitus (suppression ratio, 20 kHz test series)", "type": "in vivo, Long Evans rats", "conditions": "0.5 mg/kg; 12 animals with tinnitus compared to 8 unexposed controls"}, "α3β4 nAChRs [6]": {"biological_target": "T2, α3β4 nAChRs", "conditions": "at lower affinity; cited from earlier work"}, "α7 nAChRs [7]": {"biological_target": "T1, α7 nAChRs", "conditions": "cited from earlier work", "remark": "listed apart in the source"}}, "note": "Entries after “also recorded” stand apart in the source; their conditions may differ."}
{"smiles": "OCCCCC#Cc1cncc(OC[C@@H]2CCN2)c1", "note": "[sazetidine]", "values": [{"measurement": "selectivity for α4β2 nAChRs relative to α7 nAChRs", "setting": "α7 nAChRs [1]", "value": "3,500 fold"}, {"measurement": "therapeutic effect on tinnitus", "setting": "[2]; 0.1 mg/kg SC, FIG. 9", "value": "potentially weak therapeutic effect"}, {"measurement": "tinnitus dose-response (tinnitus suppression ratio)", "setting": "[2]; 0.1 mg/kg to 1.0 mg/kg SC, FIG. 11", "value": "Therapeutic effect increased with dose; also recorded: effectiveness increases as the dose is increased"}, {"measurement": "suppression curve of tinnitus animals versus unexposed control animals", "setting": "[2]; 0.5 mg/kg SC, FIG. 8", "value": "no longer significantly different"}, {"measurement": "suppression curve of tinnitus animals versus unexposed control animals", "setting": "[2]; 1 mg/kg SC, first test, FIG. 2", "value": "no longer significantly different"}, {"measurement": "suppression curve of tinnitus animals versus unexposed control animals", "setting": "[2]; 1 mg/kg SC, second test (1st replication), FIG. 5", "value": "again no longer significantly different"}, {"measurement": "therapeutic effect on tinnitus", "setting": "[2]; 1 mg/kg SC, third test (2nd replication), one week after 1st replication, FIG. 6", "value": "No therapeutic effect was observed"}, {"measurement": "evidence of tinnitus", "setting": "[2]; 0.1 mg/kg", "value": "significantly reduced evidence of tinnitus"}, {"measurement": "evidence of tinnitus", "setting": "[2]; 0.5 mg/kg", "value": "effectively and significantly decreased evidence of tinnitus"}, {"measurement": "evidence of tinnitus", "setting": "[2]; 1 mg/kg", "value": "effectively and significantly decreased evidence of tinnitus"}, {"measurement": "dose level at which statistical effectiveness begins", "setting": "[2]; SC, FIG. 11", "value": "about 0.5 mg/kg"}, {"measurement": "suppression curve of tinnitus animals versus unexposed control animals", "setting": "[2]; five weeks following initial treatment, saline SC before test, FIG. 4", "value": "again statistically significantly different"}, {"measurement": "suppression curve of tinnitus animals versus unexposed control animals", "setting": "[2]; one week following initial treatment, washout, FIG. 3", "value": "remain similar to control"}, {"measurement": "tinnitus-related symptoms/lever pressing", "setting": "[2]; treatment 1 hour before testing", "value": "decreased tinnitus-related symptoms/lever pressing"}, {"measurement": "selectivity for α4β2 nAChRs compared to α3β4 nAChRs", "setting": "α3β4 nAChRs [3]", "value": "> 20,000 fold"}, {"measurement": "sedation (decrease in total bar pressing)", "setting": "[4]; 1.0 mg/kg, FIG. 10", "value": "Mild sedation"}, {"measurement": "excess salivation, share of animals", "setting": "[4]; 1.0 mg/kg, visual evidence", "value": "about a third of the animals"}, {"measurement": "non-specific effects at the beginning of the test period", "setting": "[4]; 1 hr after treatment, FIG. 10", "value": "not present"}, {"measurement": "non-specific drug effects", "setting": "[4]; FIG. 10", "value": "evident at 1 mg/kg"}, {"measurement": "time of appearance of non-specific effects after treatment", "setting": "[4]; FIG. 10", "value": "10 to 15", "unit": "min"}, {"measurement": "time to prone resting position in home cage, all animals", "setting": "[4]; after drug treatment", "value": "≤ 10", "unit": "min"}, {"measurement": "sedation (decrease in session lever pressing)", "setting": "[4]; higher doses, FIG. 10", "value": "some general sedation"}, {"measurement": "duration of prone resting position", "setting": "[4]; rat, in vivo", "value": "about 10 min"}, {"measurement": "drug-dependent agitation, animals affected", "setting": "[4]; sound-exposed animal without evidence of tinnitus", "value": "One animal (out of 16)"}, {"measurement": "concentration that desensitizes α4β2 nAChRs", "setting": "α4β2 nAChRs", "value": "low nanomolar concentrations"}, {"measurement": "affinity for β2-containing nAChRs", "setting": "α4β2 nAChRs", "value": "very high affinity"}]}
{"smiles": "c1cnc2cc3c(cc2n1)C1CNCC3C1", "note": "[varenicline, 7,8,9,10-tetrahydro-6,10-methano-6H-pyrazino[2,3-h][3]-benzazepine]", "values": [{"measurement": "reduction of evidence of tinnitus", "setting": "[5]", "value": 47, "unit": "%"}, {"measurement": "selectivity for α4β2 nAChRs relative to α7 nAChRs", "setting": "α7 nAChRs [1]", "value": "4,000-5,000 fold"}, {"measurement": "type of action at α3β4 nAChRs", "setting": "α3β4 nAChRs [6]", "value": "partial agonist actions"}, {"measurement": "type of action at α7 nAChRs", "setting": "α7 nAChRs [7]", "value": "full agonist activity"}, {"measurement": "suppression curve of tinnitus animals versus unexposed control animals", "setting": "[2]; 0.5 mg/kg SC, FIG. 13", "value": "no longer significantly different"}, {"measurement": "linearity of tinnitus reduction across doses", "setting": "[2]; doses between 0.1 and 1.0 mg/kg", "value": "not-linear"}, {"measurement": "selectivity for α4β2 nAChRs compared to α3β4 nAChRs", "setting": "α3β4 nAChRs [3]", "value": "4,000-5,000 fold"}, {"measurement": "concentration that desensitizes α4β2 nAChRs", "setting": "α4β2 nAChRs", "value": "low nanomolar concentrations"}, {"measurement": "affinity for β2-containing nAChRs", "setting": "α4β2 nAChRs", "value": "very high affinity"}]}
